Test results reported in patent EP4335840A1, “NEW CONTRAST AGENTS FOR USE IN DIAGNOSTIC IMAGING” (priority 2022, dated 2024).

Experiments:
OATP1B3 = biological target: T1, OATP1B3 (Homo sapiens, UniProt Q9NPD5); test: Uptake into stable transfected OATP1B3 HEK 293 cells; type: cell-based; settings: 100 µM, 40 min, relative to RC1 (Gd-EOB-DTPA)
T1 sequence (Q9NPD5 1-702): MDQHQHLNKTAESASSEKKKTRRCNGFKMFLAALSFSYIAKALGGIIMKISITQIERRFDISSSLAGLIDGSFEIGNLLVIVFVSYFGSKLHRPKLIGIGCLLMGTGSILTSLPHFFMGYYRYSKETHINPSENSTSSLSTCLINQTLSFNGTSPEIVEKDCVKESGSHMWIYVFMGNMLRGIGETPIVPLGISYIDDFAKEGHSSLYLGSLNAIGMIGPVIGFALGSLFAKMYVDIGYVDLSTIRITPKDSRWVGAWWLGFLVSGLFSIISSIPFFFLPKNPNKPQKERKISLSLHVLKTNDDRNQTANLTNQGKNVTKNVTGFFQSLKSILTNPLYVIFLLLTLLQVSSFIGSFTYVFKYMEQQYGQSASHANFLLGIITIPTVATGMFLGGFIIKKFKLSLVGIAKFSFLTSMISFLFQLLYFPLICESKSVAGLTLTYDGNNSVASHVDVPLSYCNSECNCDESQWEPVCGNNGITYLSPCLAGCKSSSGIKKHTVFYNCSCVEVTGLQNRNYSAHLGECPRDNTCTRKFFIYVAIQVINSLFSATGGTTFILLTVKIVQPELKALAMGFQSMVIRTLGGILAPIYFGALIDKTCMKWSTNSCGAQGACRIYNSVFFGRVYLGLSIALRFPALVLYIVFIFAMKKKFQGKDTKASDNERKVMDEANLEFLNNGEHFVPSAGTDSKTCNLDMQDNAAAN
Description: Human transfected OATP1B3 human embryonic kidney 293 cells (OATP1B3 HEK 293, SLCO1B3, Entrez Gene ID: 28234) were used (Leonhardt M et al. Drug Metab Dispos. 2010 Jul;38(7):1024-8). The following culture medium was used: 500 mL DMEM (Dulbecco's Modified Eagle Medium - high Glucose, D6429), 50 mL FCS (fetal bovine serum, Fa. Sigma, F7524), 5.8 mL G418 (Geneticin, Fa. Gibco 10131-027) and 5 mL Pen-Strep. (Penicillin-Streptomycin, Fa. Gibco, Ref 15140-122). Cryopreserved cells were shortly thawed in water bath and diluted in 10 mL warm culture medium (37°C). After medium change the cells were grown for 3d in a 25 cm^2 cell culture flask. After 3 to 5d the cells were transferred into 75 cm^2 flasks. For the splitting of cells these were incubated with 1.5 mL trypsin (Trypsin-EDTA (1x) 0,05%, Ref 25300-054 100ml, Fa. Gibco) for 3-5 min in the incubator (37°C, 5% CO2 and […]). After centrifugation and washing with medium the cells were counted (50 µL cell suspension and 50 µL trypan blue (Trypan Blue Solution, 93595-50ml, Fa. Fluka). Cells were cultured (1×10^5 cells/well) in poly-D-lysine coated 24-well plates (Fa. Corning, Ref: 354414) in 1.5 mL medium per well. After 48 hours in the incubator the medium was changed and 1.5 mL/well sodium butyrate containing medium were added (40 mL culture medium plus 400 µL Na-Butyrate, Fa. Sigma Aldrich B5887-5G, 250 mg in 2.27 mL MilliQ water). After 24 hours in the incubator the medium was vacuumed off and 1.5 mL transport buffer was added and incubated for 10 min. The transport buffer contains the following ingredients: 500 mL HBSS (Hank's balanced salt solution, Hyclone, SH30268.01), 5 mL HEPES buffer (4-(2-hydroxyethyl)-1-piperazine-ethanesulfonic acid, Gibco 15630-056) and 3.9 mL glucose (Sigma, G8270-100, 90 g/200mL MilliQ water). All test items were prepared in transport buffer at a final concentration of 100 µM from stock solutions (180 to 500 mM concentration). The OATP1B3 HEK 293 cells were incubated with test solutions (test item in transport buffer 500 µL) for 40min on a thermoshaker without shaking (PHMP, Fa. Grant Bio). Triplicates were performed for each test item. After incubation the cells were washed with 2 mL of cold PBS (+) buffer (Dulbeccos PBS +, Fa. Gibco). […] As a reference standard Gd-EOB-DTPA (gadoxetate) is used in the same well plate. The OATP1B3 HEK 293 uptake of the test compound is calculated relative to gadoxetate (resulting in the unit % of RC1).

[1] = test system: freshly isolated rat hepatocytes; test: Uptake into freshly isolated rat hepatocytes; settings: for Uptake rat hepatocytes: 100 µmol Gd/L, 10 min, 37°C, relative to RC1 (Gd-EOB-DTPA); for Inhibition Rifampicine: rat hepatocyte uptake with OATP1B1/1B3 inhibitor Rifampicine, test item and inhibitor each 100 µM
Description: The rat hepatocytes were incubated (2.5 ·10^5 cells/well) for 2.5 to 4h in collagen coated 24-well plates (Fa. Beckton Dickinson Biocoat, cell environments, Collagen I Cellware) in Williams E-medium (Fa. Sigma W1878) in an incubator (37°C, 5% CO2 and 95% oxygen). After incubation the adherent hepatocytes were washed once with 37°C Hepes carbonate transport buffer (500 µL/well). The test items and RC1 were prepared from stock solutions (180 to 500 mM concentration) in Hepes carbonate transport buffer at pH 7.4 to reach a final concentration of 100 µmοl Gd/L. The specific uptake of the test item or RC1 into rat hepatocytes via OATP1 B1 and OATP1 B3 was challenged using a known OATP1B1/1B3 inhibitor (Rifampicine, Fa. Sigma R3501, test item and inhibitor 1:1 each 100 µM final concentration). The prepared rat hepatocyte plates were incubated with test solutions (500 µL/well) at 37°C for 10 min using a thermoshaker (Fa. Grant Bio, PHMP). Triplicates were performed for each test item. After incubating the cells were washed once with cold PBS buffer (Fa. Gibco, Dulbeccos PBS (+)). After washing the intact hepatocytes were lysed by addition of 500 µL cold 0.01 % Triton-X 100 in Millipore water for 1h. […] After 1h 500 µL of 10 nM Terbium ICP-MS standard was added in 2% nitric acid and 0.01% Triton 100 before the Gadolinium concentrations in the lysate were measured using ICP-MS (Agilent 8900, singleQuad, integr. Time 0.3 s, no gas, 5 replicates, Gd m/z 157, Tb m/z 159). As a reference standard RC1 is used in the same well plate. The hepatocyte uptake of the test compound is calculated relative to RC1 (resulting in the unit % of RC1).

| Substance | Uptake into OATP1B3-HEK 293 cells (OATP1B3) | Uptake rat hepatocytes [1] | Inhibition Rifampicine [1] [% inhibition] |
| --- | --- | --- | --- |
| Gadolinium-2,2',2"-[10-(carboxymethyl)-2-(4-ethoxybenzyl)-1,4,7,10-tetraazacyclododecane-1,4,7-triyl]triacetate [Example 8] | 94 % of RC1 | 143 % of RC1 | 96 |
| Gadolinium-2,2',2"-[10-(carboxymethyl)-2-(4-ethoxybenzyl)-1,4,7,10-tetraazacyclododecane-1,4,7-triyl]triacetate [Example 9] | 13 % of RC1 | 42 % of RC1 | 93 |
| Gadolinium-2,2',2"-[(2S)-2-(4-butoxybenzyl)-10-(carboxymethyl)-1,4,7,10-tetraaza cyclododecane-1,4,7-triyl]triacetate [Example 12] | 66 % of RC1 | 110 % of RC1 | 96 |
| Gadolinium-2,2',2"-[(2S)-2-(4-butoxybenzyl)-10-(carboxymethyl)-1,4,7,10-tetraaza cyclododecane-1,4,7-triyl]triacetate [Example 13] | 383 % of RC1 | 137 % of RC1 | 86 |
| Gadolinium-2,2',2"-[(2S)-10-(carboxymethyl)-2-(4-ethoxybenzyl)-1,4,7,10-tetraazacyclododecane-1,4,7-triyl]triacetate [Example 10] | 80 % of RC1 | 104 % of RC1 | 96 |
| Gadolinium-2,2',2"-[(2S)-10-(carboxymethyl)-2-(4-ethoxybenzyl)-1,4,7,10-tetraazacyclododecane-1,4,7-triyl]triacetate [Example 11] | 32 % of RC1 | 49 % of RC1 | 96 |
